In the supplement of paper PMC11451515:

Experiments:
Assay in all cases: AUC of viability dose-response curve (% viability x log10 dose units); higher = less sensitive
Conditions in all cases: 48 h
[1] = system: SEM cells
Outline: (§1)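 Seeding of medium-adapted leukemia cells was at 500 or 1000 cells/well in 1536-well plates, followed by 48 h at 37°C with library compounds in DMSO at 11 threefold doses from 47 μM to 0.79 nM. CellTiter-Glo One luminescence was normalised per plate to DMSO and cell-free wells and fitted as a four-parameter log-logistic function of log10 dose. Area under the curve was integrated by trapezoidal rule, with curves exceeding full viability scaled and curves failing quality control removed.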

[2] = system: P12-Ichikawa
Outline: as §1

[3] = system: NOMO1
Outline: as §1

[4] = RPMI 5 mM glucose + 10% dialyzed FBS

Structure (SMILES)	AUC of viability dose-response curve ([1]; HPLM + 10% dialyzed FBS)	AUC of viability dose-response curve ([1]; RPMI 5 mM glucose + 10% FBS)	AUC of viability dose-response curve [1, 4]	AUC of viability dose-response curve ([2]; HPLM + 10% dialyzed FBS)	AUC of viability dose-response curve ([2]; RPMI 5 mM glucose + 10% FBS)	AUC of viability dose-response curve [2, 4]	AUC of viability dose-response curve ([3]; HPLM + 10% dialyzed FBS)	AUC of viability dose-response curve ([3]; RPMI 5 mM glucose + 10% FBS)	AUC of viability dose-response curve [3, 4]
C[C@H](NC(=O)/C(C#N)=C/c1cccc(Br)n1)c1ccccc1	336	316	336	336	353	351	348	361	371
CC(C)n1c(/C=C/[C@H](O)C[C@H](O)CC(=O)O)c(-c2ccc(F)cc2)c2ccccc21	430	426	441	381	371	355	428	457	448
CC1=CC=CC=C1N2\C(=N/C3=C(C(=CC=C3)C)C2=O)C[N]4C=NC5=C4N=CN=C5N	344	308	344	439	412	419	369	427	406
CN1[C@@H]2CC[C@H]1CC(OC(=O)c1c[nH]c3ccccc13)C2 (some centres not stated)				463	468	466	436	459	444
CC(C)c1cnn2c(NCc3ccccc3)cc(N[C@@H](CO)[C@H](O)CO)nc12	299	290	299	327	313	320	297	303	302
CCN(CC)CC#CCOC(=O)C(O)(c1ccccc1)C1CCCCC1 (configuration not stated)	458	476	471	460	475	472	468	473	465
COc1ccc(Cc2ccc(NC(N)=O)cc2)cc1-c1cccc(Cl)c1	458	465	469	467	465	464	472	471	476
C[C@H](O)[C@H]1[C@@H]2[C@H](C)C(=C(\N2C1=O)C(O)=O)/S[C@@H]3CN[C@H](CN[S+](N)([O-])=O)C3	443	453	420	465	455	447	439	443	452
CC(N[C@H]1C[C@@H]1c1ccccc1)c1ccc2c(c1)OCCO2 (some centres not stated)	475	467	471	458	469	451	434	470	470
CC1=NN(c2ccc(C)c(C)c2)C(=O)/C1=N/Nc1cccc(-c2cccc(C(=O)O)c2)c1O	453	448	442	448	430	426	431	448	428
